This is an account of results in patent US10766872B2, “Compounds for the treatment of mycobacterial infections” (The Broad Institute, Inc., priority 2011, dated 2020).

In this test the test system is Mtb strain H37Rv. Put plainly: Antitubercular activity, OD600 based growth inhibition assay (IC90). The test is classed as cell-based, Mycobacterium tuberculosis.
Where [1] appears, read: Mycobacterium tuberculosis, H37RV, 168 h, Mtb H37Rv, 7 days incubation, growth read by OD600, concentration giving 90% inhibition of growth of the control, read-out: IC90.
Setting [2] is: Mtb H37Rv, 7 days incubation, growth read by OD600, concentration giving 90% inhibition of growth of the control, read-out: IC90.

In general, IC90 refers to the concentration at which the effect reaches the 90% level.

Structures can show the parent of a compound that is named as a salt. Where two headings read alike, the source gives them in different places.

Take `Cc1cc2oc(=O)cc(-c3ccccc3)c2c(C)c1-c1ccc(CN2CCOCC2)cc1` [Compound 1, 5,7-Dimethyl-6-(4-(morpholinomethyl)phenyl)-4-phenyl-2H-chromen-2-one]: the IC90 under setting [1] fell in the range of 0.001 to 10 µM.

For `Cc1cc2oc(=O)cc(-c3ccccc3)c2c(C)c1-c1ccc(CN2CCCCC2)cc1` [Compound 2, 5,7-Dimethyl-4-phenyl-6-(4-(piperidine-1-ylmethyl)phenyl)-2H-chromen-2-one], under setting [1], the concentration for an effect of 90% (IC90) is 10 to 50 µM. On the same count and under the same terms, then `Cc1cc2oc(=O)cc(-c3ccccc3)c2c(C)c1-c1ccc(CNC2CCCCC2)cc1` [Compound 3, 6-(4-((Cyclohexylamino)methyl)phenyl)-5,7-dimethyl-4-phenyl-2H-chromen-2-one], with 0.001 to 10 µM. `CCCCCCNCc1ccc(-c2c(C)cc3oc(=O)cc(-c4ccccc4)c3c2C)cc1` [Compound 4, 6-(4-((Hexylamino)methyl)phenyl)-5,7-dimethyl-4-phenyl-2H-chromen-2-one]: the IC90 under setting [1] was 0.001 to 10 µM. As for `Cc1cc2oc(=O)cc(-c3ccccc3)c2c(C)c1-c1ccc(CN2CCN(C)CC2)cc1` [Compound 5, 5,7-Dimethyl-6-(4-((4-methylpiperazin-1-yl)methyl)phenyl)-4-phenyl-2H-chromen-2-one], the IC90 under setting [1] was 0.001 to 10 µM. As to `Cc1cc2oc(=O)cc(-c3cccc(N)c3)c2c(C)c1-c1ccc(CN2CCOCC2)cc1` [Compound 6, 4-(3-Aminophenyl)-5,7-dimethyl-6-(4-(morpholinomethyl)phenyl)-2H-chromen-2-one hydrochloride], the IC90 (Mycobacterium tuberculosis, H37RV, 168 h) fell in the range of 0.001 to 10 µM. With `Cc1cc2oc(=O)cc(-c3ccc(N)cc3)c2c(C)c1-c1ccc(CN2CCOCC2)cc1` [Compound 7, 4-(4-Aminophenyl)-5,7-dimethyl-6-(4-(morpholinomethyl)phenyl)-2H-chromen-2-one], the IC90 under setting [1] is 10 to 50 µM. The same measure, in the same setting: the figure for `Cc1cc2oc(=O)cc(-c3cccc([N+](=O)[O-])c3)c2c(C)c1-c1ccc(CN2CCOCC2)cc1` [Compound 8, 5,7-Dimethyl-6-(4-(morpholinomethyl)phenyl)-4-(3-nitrophenyl)-2H-chromen-2-one] is 0.001 to 10 µM; for `COC(=O)c1cccc(-c2cc(=O)oc3cc(C)c(-c4ccc(CN5CCOCC5)cc4)c(C)c23)c1` [Compound 9, Methyl 3-(5,7-dimethyl-6-(4-(morpholinomethyl)phenyl)-2-oxo-2H-chromen-4-yl)benzoate] it is 50 to 100 µM. Same read-out and setting: then `CC(=O)Nc1cccc(-c2cc(=O)oc3cc(C)c(-c4ccc(CN5CCOCC5)cc4)c(C)c23)c1` [Compound 10, N-(3-(5,7-dimethyl-6-(4-(morpholinomethyl)phenyl)-2-oxo-2H-chromen-4-yl)phenyl)acetamide], with 10 to 50 µM. Same read-out and setting: then `Cc1cc2oc(=O)cc(-c3cccc(NS(C)(=O)=O)c3)c2c(C)c1-c1ccc(CN2CCOCC2)cc1` [Compound 11, N-(3-(5,7-dimethyl-6-(4-(morpholinomethyl)phenyl)-2-oxo-2H-chromen-4-yl)phenyl)methanesulfonamide], with 50 to 100 µM. For `CCOC(=O)Nc1cccc(-c2cc(=O)oc3cc(C)c(-c4ccc(CN5CCOCC5)cc4)c(C)c23)c1` [Compound 12, Ethyl (3-(5,7-dimethyl-6-(4-(morpholinomethyl)phenyl)-2-oxo-2H-chromen-4-yl)phenyl)carbamate], the IC90 under setting [2] fell in the range of 10 to 50 µM. `Cc1cc2oc(=O)cc(-c3cccnc3)c2c(C)c1-c1ccc(CN2CCOCC2)cc1` [Compound 13, 5,7-Dimethyl-6-(4-(morpholinomethyl)phenyl)-4-(pyridin-3-yl)-2H-chromen-2-one]: the IC90 under setting [1] was 0.001 to 10 µM. On the same count and under the same terms, then `Cc1cc2oc(=O)cc(-c3ccccc3)c2c(C)c1-c1ccc(C#N)cc1` [Compound 14], with greater than 100 µM; and `Cc1ccc(-c2c(C)cc3oc(=O)cc(-c4ccccc4)c3c2C)cc1` [Compound 15], with 10 to 50 µM; and `COc1ccc(-c2c(C)cc3oc(=O)cc(-c4ccccc4)c3c2C)cc1` [Compound 16], with greater than 100 µM. Still for that read-out and setting: the figure for `COc1ccccc1-c1c(C)cc2oc(=O)cc(-c3ccccc3)c2c1C` [Compound 17] is greater than 100 µM. Same read-out and setting: the figure for `COc1cccc(-c2c(C)cc3oc(=O)cc(-c4ccccc4)c3c2C)c1` [Compound 18] is 10 to 50 µM. For the compound `Cc1cc2oc(=O)cc(-c3ccccc3)c2c(C)c1-c1ccc(O)cc1` [Compound 19], the 90% effect concentration (IC90) under setting [1] was greater than 100 µM. With `Cc1cc2oc(=O)cc(-c3ccccc3)c2c(C)c1-c1ccc(CO)cc1` [Compound 20], the IC90 under setting [2] was 0.001 to 10 µM. As to `Cc1cc(CO)ccc1-c1c(C)cc2oc(=O)cc(-c3ccccc3)c2c1C` [Compound 21], under setting [1], the IC90 fell in the range of 10 to 50 µM. For the compound `Cc1cc2oc(=O)cc(-c3ccccc3)c2c(C)c1-c1ccc(CS)cc1` [Compound 22], the IC90 under setting [1] is greater than 100 µM.

`C=Cc1ccc(-c2c(C)cc3oc(=O)cc(-c4ccccc4)c3c2C)cc1` [Compound 23]: under setting [1], the IC90 was greater than 100 µM. The same measure, in the same setting: then `CCc1ccc(-c2c(C)cc3oc(=O)cc(-c4ccccc4)c3c2C)cc1` [Compound 24], with greater than 100 µM; and `Cc1cc2oc(=O)cc(-c3ccccc3)c2c(C)c1-c1ccc(Cl)cc1` [Compound 25], with 50 to 100 µM; and `Cc1cc2oc(=O)cc(-c3ccccc3)c2c(C)c1-c1cccc(Cl)c1` [Compound 26], with greater than 100 µM.

Turning to `Cc1cc2oc(=O)cc(-c3ccccc3)c2c(C)c1-c1ccccc1Cl` [Compound 27], the IC90 under setting [1] was 10 to 50 µM. Same read-out and setting: the figure for `Cc1cc2oc(=O)cc(-c3ccccc3)c2c(C)c1-c1ccc(F)cc1` [Compound 28] is 10 to 50 µM. On to `Cc1cc2oc(=O)cc(-c3ccccc3)c2c(C)c1-c1cccc(F)c1` [Compound 29], for which the IC90 under setting [1] was 10 to 50 µM. On the same count and under the same terms, then `Cc1cc2oc(=O)cc(-c3ccccc3)c2c(C)c1-c1ccc(C(F)(F)F)cc1` [Compound 30], with 10 to 50 µM. With `Cc1cc2oc(=O)cc(-c3ccccc3)c2c(C)c1-c1cccc(C(F)(F)F)c1` [Compound 31], under setting [1], the 90% effect concentration (IC90) was greater than 100 µM.

With `CC(=O)c1ccc(-c2c(C)cc3oc(=O)cc(-c4ccccc4)c3c2C)cc1` [Compound 32], under setting [1], the IC90 is greater than 100 µM.

As for `Cc1cc2oc(=O)cc(-c3ccccc3)c2c(C)c1-c1ccc(C(C)O)cc1` (stereo not shown) [Compound 33], the IC90 under setting [1] was 0.001 to 10 µM.

With `CNC(=O)c1ccc(-c2c(C)cc3oc(=O)cc(-c4ccccc4)c3c2C)cc1` [Compound 34], the 90% effect concentration (IC90) under setting [1] was in the range of 0.001 to 10 µM. Still for that read-out and setting: then `Cc1cc2oc(=O)cc(-c3ccccc3)c2c(C)c1-c1ccncc1` [Compound 35], with 0.001 to 10 µM; and `Cc1cnccc1-c1c(C)cc2oc(=O)cc(-c3ccccc3)c2c1C` [Compound 36], with 10 to 50 µM; and `Cc1cc2oc(=O)cc(-c3ccccc3)c2c(C)c1-c1cccnc1` [Compound 37], with 50 to 100 µM. Same read-out and setting: the figure for `COc1ncc(-c2c(C)cc3oc(=O)cc(-c4ccccc4)c3c2C)cn1` [Compound 38] is greater than 100 µM.

Take `COc1ncc(-c2c(C)cc3oc(=O)cc(-c4ccccc4)c3c2C)c(OC)n1` [Compound 39]: the IC90 under setting [1] was in the range of 10 to 50 µM. Still for that read-out and setting: the figure for `Cc1cc2oc(=O)cc(-c3ccccc3)c2c(C)c1-c1cnc(C)c2ccccc12` [Compound 40] is greater than 100 µM; for `Cc1cc2oc(=O)cc(-c3ccccc3)c2c(C)c1-c1cncnc1` [Compound 41] it is 0.001 to 10 µM. Same read-out and setting: the figure for `Cc1ccc(/C=C/c2c(C)cc3oc(=O)cc(-c4ccccc4)c3c2C)cc1` [Compound 42] is 50 to 100 µM. As to `CCOC(=O)Nc1cccc(-c2cc(=O)oc3cc(C)c(-c4ccc(CN5CCOCC5)cc4)c(C)c23)c1` [Compound 43], under setting [2], the concentration for an effect of 90% (IC90) was greater than 100 µM. Take `COc1ccc(-c2cc(=O)oc3cc(C)c(-c4ccc(CN5CCOCC5)cc4)c(C)c23)cc1` [Compound 44]: the IC90 under setting [1] was greater than 100 µM. On the same count and under the same terms, the figure for `Cc1ccc(-c2ccc3oc(=O)cc(-c4ccccc4)c3c2)cc1` [Compound 45] is greater than 100 µM; for `O=c1cc(-c2ccccc2)c2cc(-c3ccc(CO)cc3)ccc2o1` [Compound 47] it is greater than 100 µM. Still for that read-out and setting: then `Cc1cc2oc(=O)cc(-c3ccccc3)c2cc1-c1ccc(CO)cc1` [Compound 48], with 50 to 100 µM. Still for that read-out and setting: then `Cc1c(-c2ccc(CO)cc2)ccc2oc(=O)cc(-c3ccccc3)c12` [Compound 49], with 50 to 100 µM. Take `Cc1cc2oc(=O)cc(-c3ccccc3)c2c(C)c1-c1ccc(CO)cc1` [Compound 50]: the IC90 under setting [2] was greater than 100 µM.
